Read-outs that look alike come from different tables or passages of the source. Marks after values point to notes of the source that are not given here.
Legend:
[1] = test system: rodent, squirrel monkey; details: rodent and squirrel monkey models; cited from earlier work
[2] = test system: men; details: cited from earlier work
[3] = set-up: key to Pharmacokinetics: “poor” - low bioavailability and/or short half-life; “good” - potent with long half-life; details: in vivo; cited from earlier work
[4] = test system: rhesus monkeys; experiment: Midazolam self-administration (PR) after TPA023B pretreatment; type: in vivo, rhesus monkey
Protocol: To test this, we have trained monkeys to self-administer the short-acting conventional benzodiazepine midazolam (0.056 mg/kg/injection, i.v.) in the PR procedure, as described above. During test sessions, we initially kept the training dose of midazolam constant, and administered i.v. pretreatments of TPA023B (0.003, 0.01, 0.03, 0.1, 0.3 mg/kg, of vehicle) immediately prior to the beginning of the session. A key consideration for any pharmacotherapy, as well as interpretation of blockade of reinforcing effects generally, is the extent to which the blockade is specific to the drug target and not a generalized suppression of behavior, e.g., due to sedative-motor effects inhibiting the ability of the monkey to press the lever. Another possible confounding factor that would potentially result in blockade of drug taking is general sickness or perceptual alterations. In particular, appetite suppression would represent an undesirable side effect in a benzodiazepine addiction pharmacotherapy.
To further evaluate the extent to which attenuation of responding was due to pharmacological antagonism and to evaluate an exemplary range of effective doses, we evaluated single doses of TPA023B administered prior to sessions in which differing doses of midazolam were tested.

[5] = test system: benzodiazepine binding sites; details: cited from earlier work
[6] = target: α1 subunit-containing GABAA receptors (Homo sapiens, UniProt P14867+P18507); set-up: key to Subtype α1: act as partial positive modulators for particular subtype combinations; none: zero efficacy (i.e., antagonism) at other subtypes; details: cited from earlier work
Chain of α1 subunit-containing GABAA receptors (P14867 28-456): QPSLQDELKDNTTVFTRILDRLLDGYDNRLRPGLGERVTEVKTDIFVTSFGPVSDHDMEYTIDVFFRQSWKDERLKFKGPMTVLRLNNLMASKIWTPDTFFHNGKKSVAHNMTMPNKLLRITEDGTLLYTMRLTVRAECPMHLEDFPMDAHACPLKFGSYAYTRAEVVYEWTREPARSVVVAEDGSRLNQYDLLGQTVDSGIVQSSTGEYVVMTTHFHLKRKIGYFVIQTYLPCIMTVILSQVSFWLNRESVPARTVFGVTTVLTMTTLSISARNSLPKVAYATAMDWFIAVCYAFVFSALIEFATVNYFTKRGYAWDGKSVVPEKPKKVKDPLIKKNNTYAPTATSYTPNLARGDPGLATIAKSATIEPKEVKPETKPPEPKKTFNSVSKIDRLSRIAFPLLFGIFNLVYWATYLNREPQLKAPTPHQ
Chain of α1 subunit-containing GABAA receptors (P18507 40-475): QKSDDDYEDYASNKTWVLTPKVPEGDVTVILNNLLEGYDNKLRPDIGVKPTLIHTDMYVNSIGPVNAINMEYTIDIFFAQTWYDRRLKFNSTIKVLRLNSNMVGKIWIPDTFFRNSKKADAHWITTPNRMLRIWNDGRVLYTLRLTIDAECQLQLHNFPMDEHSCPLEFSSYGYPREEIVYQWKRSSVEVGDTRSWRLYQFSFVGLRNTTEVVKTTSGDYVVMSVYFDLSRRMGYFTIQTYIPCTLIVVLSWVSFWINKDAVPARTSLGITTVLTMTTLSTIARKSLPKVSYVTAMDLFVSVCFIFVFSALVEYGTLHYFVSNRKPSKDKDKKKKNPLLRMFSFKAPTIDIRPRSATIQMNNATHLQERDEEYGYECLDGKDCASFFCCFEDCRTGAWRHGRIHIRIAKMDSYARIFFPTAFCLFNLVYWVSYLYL
Chain of α1 subunit-containing GABAA receptors (P28472 26-473 partner): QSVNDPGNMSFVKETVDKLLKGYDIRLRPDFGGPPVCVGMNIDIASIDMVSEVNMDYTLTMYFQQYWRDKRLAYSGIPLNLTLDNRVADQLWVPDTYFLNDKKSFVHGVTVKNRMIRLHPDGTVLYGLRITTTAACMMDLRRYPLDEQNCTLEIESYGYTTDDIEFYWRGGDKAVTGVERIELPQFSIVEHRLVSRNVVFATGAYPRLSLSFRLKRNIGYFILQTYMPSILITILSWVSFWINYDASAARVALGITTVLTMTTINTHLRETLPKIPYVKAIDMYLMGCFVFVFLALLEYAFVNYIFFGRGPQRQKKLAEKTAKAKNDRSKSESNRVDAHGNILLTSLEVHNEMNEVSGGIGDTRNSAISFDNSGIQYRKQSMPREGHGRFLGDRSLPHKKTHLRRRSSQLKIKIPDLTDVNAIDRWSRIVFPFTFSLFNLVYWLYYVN

[7] = test system: CNS benzodiazepine binding sites; details: 1.5 mg/70 kg oral, PET; cited from earlier work
[8] = test system: CNS benzodiazepine binding sites; details: rodents and primates; cited from earlier work
[9] = test system: rhesus monkeys; experiment: Conflict model of anxiolysis (mult FR, FR+PUN); type: in vivo, rhesus monkey; details: i.v.; for Non-Suppressed, Mean responses/s (SEM) / Suppressed, Mean responses/s (SEM): N = 4 monkeys
Source text: The conflict procedure methodology includes a two-component multiple fixed-ratio, fixed-ratio plus punishment schedule (mult FR, FR+PUN). An important feature of this model is that it is highly predictive of clinically active doses in human subjects (Rowlett et al. 2006, Psychopharmacology 184: 201-11). One component of this schedule was associated with a distinctive visual stimulus (e.g., red light) and the other component was associated with a different stimulus (e.g., green light). In each component, completion of 10 responses (FR 10) produced a food pellet followed by a brief (10 sec) timeout period. The component ended following delivery of 5 food pellets or 5 min, whichever occurred first. A 10-min timeout period occurred before each of four cycles with two components (1 red, 1 green) per cycle. When performance in both components of the multiple schedule was stable, responding in one component was suppressed by superimposing a FR schedule of response-produced electric shock. Under the superimposed schedule, every nth response (n=15-25, adjusted for each monkey depending on individual performance) produced shock. Once responding was stable (at least three sessions in which suppressed responding was less than 50% of non-suppressed responding, with no upward or downward trend in response rates in either component), investigational compounds were administered i.v. during the extended timeout periods using a cumulative dosing technique. This technique allowed determination of a four-point dose-response function in a single session.
Table 2 summarizes data for TPA023B in the conflict procedure (n=4 monkeys, 2 females and 2 males), with alprazolam as a positive control. Average responses when vehicle was administered was 2.2 in the non-suppressed component, decreased by ˜98% by shock presentation in the suppressed component (mean=0.05 responses). For non-suppressed responding, TPA023B had no effects on mean rates of responding or percent of control over a 100-fold dose range (0.01 to 1.0 mg/kg, i.v.). […] This effect was similar to that observed with 0.03 mg/kg, i.v., of alprazolam. A striking characteristic of TPA023B in this procedure is the lack of attenuation of rates of responding at higher doses.

[10] = test system: rodent, squirrel monkey; details: rodent rotarod and chain-pulling, squirrel monkey lever pressing; cited from earlier work

CC(C)(O)c1cnn2c(-c3ccc(F)c(-c4c(F)cccc4C#N)c3)cnc2n1 [TPA023B]
anxiolytic-like effects [1]: anxiolytic-like effects
ataxia ([2]; any dose, up to 3.0 mg/70 kg): No ataxia
adverse effects ([2]; oral, 1.5 mg/70 kg, men): no adverse effects
adverse effects ([2]; oral, 3.0 mg/70 kg, men): fatigue and drowsiness in some subjects
subjects with fatigue and drowsiness ([2]; oral, 3.0 mg/70 kg, men): 1-4 subjects out of 8 total
Pharmacokinetics [3]: good
effect on midazolam dose-response function ([4]; TPA023B 0.01 mg/kg pretreatment): shifted the midazolam dose-response function to the right
reduction of midazolam-maintained responding ([4]; TPA023B 0.03 mg/kg i.v. pretreatment, midazolam 0.018 and 0.056 mg/kg/injection): > 50%
midazolam self-administration, percent maximum ([4]; all midazolam doses, FIG. 8): below 50%
doses with both anti-conflict effects and blockade of midazolam self-administration ([4]; conflict and self-administration data combined, FIG. 8): ≥ 0.03 mg/kg
midazolam self-administration, % of maximum ([4]; higher doses of TPA023B (above 0.01 mg/kg), even at higher midazolam doses): < 50%
midazolam self-administration, percent maximum ([4]; highest TPA023B dose, FIG. 8): below 25%
effect on self-administration of midazolam ([4]; pretreatment with 0.003 mg/kg TPA023B): did not attenuate
occupancy of benzodiazepine binding sites ([5]; 1.0 and 3.0 mg/kg): up to 95%
occupancy of benzodiazepine binding sites in brain ([5]; 3.0 and 10 mg/kg): ≤ 95%
Subtype α1 [6]: none
occupancy of CNS benzodiazepine binding sites [7]: 50-55%
occupancy of CNS benzodiazepine binding sites at minimally-effective doses in anxiolysis assays [8]: 61-88%
Non-Suppressed, Mean responses/s (SEM) ([9]; 0.01 mg/kg): 2.0 (0.08) responses/s
Suppressed, Mean responses/s (SEM) ([9]; 0.01 mg/kg): 0.03 (0.02) responses/s
Non-Suppressed, Mean responses/s (SEM) ([9]; 0.1 mg/kg): 2.0 (0.15) responses/s
Suppressed, Mean responses/s (SEM) ([9]; 0.1 mg/kg): 2.46 (0.40)* responses/s
Non-Suppressed, Mean responses/s (SEM) ([9]; 1.0 mg/kg): 2.1 (0.97) responses/s
Suppressed, Mean responses/s (SEM) ([9]; 1.0 mg/kg): 2.00 (0.75)* responses/s
effect on non-suppressed responding (mean rates, percent of control) ([9]; 100-fold dose range, 0.01 to 1.0 mg/kg): no effects
effect on rates of suppressed responding (anti-conflict effect) ([9]; reaching non-suppressed levels at 0.1 mg/kg): significantly enhanced
sedation [10]: minimally sedating

From patent US12233070B2, “Methods for treating benzodiazepine misuse/use disorder” (University of M[…] Center, priority 2020, dated 2025)
